Measurements from patent publication US20130035344A1, “PHARMACEUTICAL COMPOSITION FOR ORAL ADMINISTRATION” (KOWA Co., Ltd., priority 2009, published 2013).

Assays:
Format in all cases: physicochemical
[1] = Dissolution test, JP second method (paddle method), second fluid for dissolution test
Experimental: The dissolubility of the samples 1 to 6 was examined according to the second method (paddle method) of the dissolution test method according to the general test methods of the Japanese Pharmacopoeia.
103.65 mg of each of the samples 1 to 6 (53.65 mg for sample 2 only) was introduced into 900 mL of the second fluid for dissolution test according to the Japanese Pharmacopoeia, and the test was carried out under the conditions of a temperature of 37±0.5° C. and a speed of paddle rotation of 50 rpm. Thus, the concentrations of the compound a after 5, 10, 15, 30, 45 and 60 minutes were measured. The sample solution collected at each time point was filtered through a membrane filter made of PTFE (DISMIC-25HP manufactured by Toyo Roshi Kaisha, Ltd.) having a pore size of 0.45 μm, and was analyzed by a high performance liquid chromatographic method using a reversed phase column (manufactured by Nomura Chemical Co., Ltd.; Develosil ODS-HG-5). Thus, the dissolution rates were calculated.
The dissolubility of the samples 7 to 15 was examined by carrying out the test in the same manner as that described in Test Example 1, except that 153.65 mg of sample 7, 98.65 mg of sample 8, 93.65 mg of sample 9, 88.65 mg of sample 10, 78.65 mg of sample 11, 68.65 mg of sample 12, 63.65 mg of sample 13, 58.65 mg of sample 14, and 55.65 mg of sample 15 were respectively introduced into 900 mL of the second fluid for dissolution test according to the Japanese Pharmacopoeia.
The dissolubility of the tablets of Examples 8 to 10 and Comparative Examples 9 and 10 was examined by carrying out the test by the same method as that described in Test Example 1, except that one tablet each of the Examples and Comparative Examples were introduced into 900 mL of the second fluid for dissolution test according to the Japanese Pharmacopoeia.
The dissolubility of the tablets of Example 11 and Comparative Example 11 was examined by carrying out the test in the same manner as that described in Test Example 1, except that each of tablets of Example 11 and Comparative Example 11 was introduced into 900 mL of the second fluid for dissolution test according to the Japanese Pharmacopoeia.

[2] = Measurement of pH value of sample or tablet in purified water
Experimental: 103.65 mg of each of the samples 1 to 6 (53.65 mg for sample 2 only) was introduced into a beaker, and 50 mL of purified water was added thereto. While the mixture was stirred with a magnetic stirrer, the pH of the solution was measured with a glass electrode type hydrogen ion concentration meter (manufactured by Toa Electronics, Inc.; HM-50V). 50 mL of purified water was further added thereto, and then the measurement of pH was carried out in the same manner.
The pH values of the samples 7 to 15 were measured in the same manner as that used in Test Example 2. Meanwhile 153.65 mg of sample 7, 98.65 mg of sample 8, 93.65 mg of sample 9, 88.65 mg of sample 10, 78.65 mg of sample 11, 68.65 mg of sample 12, 63.65 mg of sample 13, 58.65 mg of sample 14, and 55.65 mg of sample 15 were used.
The pH values of the tablets of Examples 8 to 10 and Comparative Examples 9 and 10 were measured by the same method as that used in Test Example 2. Meanwhile, one tablet was used for each measurement.
The pH values of the tablets of Example 11 and Comparative Example 11 were measured in the same manner as that used in Test Example 2. Meanwhile, one tablet was used for each measurement.

[3] = Solubility of compound a in water
Source text: However, compound a has low solubility in weakly acidic environments to alkaline environments (for example, the solubility in water is 0.05% (W/V)). Therefore, in the case of patients of achlorhydria, which is considered to develop more frequently in elderly people, there has been a concern that the dissolubility of the compound a from the pharmaceutical composition in the stomach may be insufficient, and there may be variations in the efficacy of the drug.

Row | dissolution rate of compound a, Time (min) 0 ([1]; 0 min, 900 mL JP second fluid, 37±0.5° C., paddle 50 rpm) | dissolution rate of compound a, Time (min) 5 ([1]; 5 min, 900 mL JP second fluid, 37±0.5° C., paddle 50 rpm) | dissolution rate of compound a, Time (min) 10 ([1]; 10 min, 900 mL JP second fluid, 37±0.5° C., paddle 50 rpm) | dissolution rate of compound a, Time (min) 15 ([1]; 15 min, 900 mL JP second fluid, 37±0.5° C., paddle 50 rpm) | dissolution rate of compound a, Time (min) 30 ([1]; 30 min, 900 mL JP second fluid, 37±0.5° C., paddle 50 rpm) | dissolution rate of compound a, Time (min) 45 ([1]; 45 min, 900 mL JP second fluid, 37±0.5° C., paddle 50 rpm) | dissolution rate of compound a, Time (min) 60 ([1]; 60 min, 900 mL JP second fluid, 37±0.5° C., paddle 50 rpm) | pH (100 mL) ([2]; after a further 50 mL purified water (100 mL)) | pH (50 mL) ([2]; sample or one tablet in 50 mL purified water, stirred) | dissolubility of compound a (in words) ([1]; JP second fluid, paddle method) | solubility in water [3] | SMILES
1 | 0% | 0% | 5.7% | 3.1% | 5.2% | 7.1% | 10.2% | 5.07 | 5.02 |  |  | CSc1cc(C)nc(SC)c1NC(=O)CN1CCN(CCSc2nc3ccccc3[nH]2)CC1 [Comparative Example 1, 2-[4-[2-(Benzimidazol-2-ylthio)ethyl]piperazin-1-yl]-N-[2,4-bis(methylthio)-6-methyl-3-pyridyl]acetamide]
2 |  |  |  |  |  |  |  |  |  | hardly dissolved | 0.05 % (W/V) | CSc1cc(C)nc(SC)c1NC(=O)CN1CCN(CCSc2nc3ccccc3[nH]2)CC1 [compound a, 2-[4-[2-(Benzimidazol-2-ylthio)ethyl]piperazin-1-yl]-N-[2,4-bis(methylthio)-6-methyl-3-pyridyl]acetamide]
